Data reported in US20260250318A1, “COMPOSITIONS AND METHODS FOR CROSSING THE BLOOD BRAIN BARRIER” (VOYAGER THERAPEUTICS, INC., priority 2022, published 2026).

System: brains, heart, liver, muscle, and DRG of the NHPs
Test: Maturation of TTM-001 and TTM-002 capsids, NGS enrichment in NHP tissues
Assay type: in vivo
Conditions: NGS, relative to AAV9 control; for Fold Enrichment relative to AAV9, Liver RNA (NHP): TTM-001 and TTM-002 matured AAV capsid variants
Excerpt: This Example describes maturation of the AAV9 capsid variants, TTM-001 (SEQ ID NO: 981 (amino acid) and 983 (DNA), comprising SEQ ID NO: 941 (encoded by SEQ ID NO: 942)) and TTM-002 (SEQ ID NO: 982 (amino acid) and 984 (DNA), comprising SEQ ID NO: […] (encoded by SEQ ID NO: 944)) in NHPs to further enhance their transduction and biodistribution in the central nervous system as well as other tissues, and evolve the AAV capsid variants to provide further cross-species compatibility. Two approaches were used to mature the TTM-001 and TTM-002 capsid sequences in order to randomize and mutate within and around the peptide insert comprised within loop IV of the capsid variant. […] In the first maturation approach, sets of three contiguous amino acids were randomized across the mutagenesis region in the TTM-001 and TTM-002 sequences, which spanned from position 450 to position 466, numbered according to SEQ ID NO: 981 and 982. In the second maturation approach, mutagenic primers were used to introduce point mutations at a low frequency, scattered across the mutagenesis region in the TTM-001 and TTM-002 sequences ranging from position 449 to position 466, numbered according to SEQ ID NO: 981 and 982. AAV capsid variants arising from each maturation approach for TTM-001 and TTM-002 were pooled together, for subsequent testing and characterization in NHPs.
The library of pooled matured AAV capsid variants generated using the first maturation approach and the second maturation approach for the TTM-001 and TTM-002 AAV capsid variants were injected into two NHPs. […] Following RNA recovery and RT-PCR amplification, a systematic NGS enrichment analysis was performed to calculate the fold enrichment ratio relative to an AAV9 control, and the peptides comprised within the variants were identified.
Following the RNA recovery and NGS analysis from the second maturation approach, approximately 680,000 capsid variants were identified. The 680,000 matured capsid variants were then filtered based on samples with a raw virus count greater than 10 and a coefficient of variance (CV) of less than 1, which was calculated for each peptide across the brain samples taken from the two NHPs. […] Using this filtering criteria, this led to approximately 64,000 matured capsid variants.

Sequence | Fold Enrichment relative to AAV9, DRG (NHP) [fold] | Fold Enrichment relative to AAV9, Brain (NHP) [fold] | Fold Enrichment relative to AAV9, Heart (NHP) [fold] | Fold Enrichment relative to AAV9, Liver DNA (NHP) [fold] | Fold Enrichment relative to AAV9, Liver RNA (NHP) [fold] | Fold Enrichment relative to AAV9, Muscle (NHP) [fold]
KTIKRYGSPHSKAQNQQT | 0.000 | 0.000 | 0.000 | 2.022 | 11.461 | 0.000
KTINALRSPHSKAQNQQT | 0.000 | 0.000 | 0.000 | 1.655 | 20.053 | 0.000
KTINCRTSPHSKAQNQQT | 0.000 | 0.000 | 0.000 | 1.117 | 28.301 | 0.000
KTINFTRSPHSKAQNQQT | 0.000 | 0.000 | 0.000 | 3.751 | 14.908 | 0.000
KTINGAYSPHRKAQNQQT | 0.000 | 0.000 | 0.000 | 1.283 | 40.969 | 0.000
KTINGLDSPHRSRQNQQT | 0.000 | 0.000 | 0.000 | 0.321 | 26.403 | 0.000
KTINGLVSPHRKAQNQQT | 0.000 | 0.000 | 0.000 | 2.739 | 23.417 | 0.000
KTINGPWSPHRKAQNQQT | 0.000 | 0.000 | 0.000 | 0.434 | 12.103 | 0.000
KTINGRPSPHGKAQNQQT | 0.000 | 0.000 | 0.000 | 0.705 | 14.442 | 0.000
KTINGRRSPHGKAQNQQT | 0.000 | 0.000 | 0.000 | 3.259 | 37.728 | 0.000
KTINGRRSPHMKAQNQQT | 0.000 | 0.000 | 0.000 | 3.510 | 12.136 | 0.000
KTINGSGSPHCALQNQQT | 0.000 | 0.000 | 0.000 | 3.867 | 11.404 | 0.000
KTINGSGSPHCPAQNQQT | 0.000 | 0.000 | 0.000 | 1.409 | 13.359 | 0.000
